Measured values: paper PMC5740381 (Antimicrobial Agents and Chemotherapy, 2017)
Read-outs that look alike come from different tables or passages of the source.

Columns and labels:
[1] = test system: HCV subgenomic stable replicon GT2b; assay: Stable HCV replicon luciferase assay in Huh-7 cells; type: cell-based; details: Hepatitis C virus, 0% human plasma, read-out: Mean EC50 ± SD
Excerpt: (§1) Five of these nine cell lines have been described previously, including those transfected with genotypes 1a H77, 1b Con1, 3a, 4a, and 6a ([28]). […] The genotype 2b and 6e NS3 sequences were each synthetically constructed based on a consensus sequence derived from the alignment of 15 genotype 2b and 4 genotype 6e sequences, respectively. All replicon constructs were bicistronic subgenomic replicons similar to those described by Bartenschlager and coworkers, and the replicon cell lines were generated by introducing these constructs into cells of an Huh-7 human hepatoma-derived cell line ([50]). The inhibitory effect of the PIs on HCV replication in replicon cells was determined in Dulbecco's modified Eagle medium containing 5% fetal bovine serum with or without 40% human plasma (Bioreclamation, Westbury, NY). The EC50s were determined using nonlinear regression curve fitting as described previously ([33]).

[2] = test system: HCV subgenomic stable replicon GT4a; assay: as above; type: cell-based, Hepatitis C virus; details: read-out: Mean EC50 ± SD
Excerpt: (§2) . Five of these nine cell lines have been described previously, including those transfected with genotypes 1a H77, 1b Con1, 3a, 4a, and 6a ([28]). The other four cell lines were established by transfecting cells with a nonchimeric genotype 2a JFH-1 replicon (GenBank accession number AB047639), two genotype 2a JFH-1 chimeric replicons containing either a genotype 2b NS3 protease domain (N-terminal 251 amino acids) or a sequence encoding full-length NS3 through the first 39 amino acids of NS5B from genotype 5a (strain SA13), and one chimeric replicon with a genotype 1b Con1 backbone containing full-length NS3 and NS4A sequences from genotype 6e. The genotype 2b and 6e NS3 sequences were each synthetically constructed based on a consensus sequence derived from the alignment of 15 genotype 2b and 4 genotype 6e sequences, respectively. All replicon constructs were bicistronic subgenomic replicons similar to those described by Bartenschlager and coworkers, and the replicon cell lines were generated by introducing these constructs into cells of an Huh-7 human hepatoma-derived cell line ([50]). The inhibitory effect of the PIs on HCV replication in replicon cells was determined in Dulbecco's modified Eagle medium containing 5% fetal bovine serum with or without 40% human plasma (Bioreclamation, Westbury, NY). The EC50s were determined using nonlinear regression curve fitting as described previously ([33]).

[3] = test system: HCV subgenomic stable replicon GT6a; assay: as above; type: cell-based, Hepatitis C virus; details: read-out: Mean EC50 ± SD
Excerpt: as §2

[4] = test system: HCV subgenomic stable replicon GT3a; assay: microbe, parasite or virus in culture; type: cell-based, Hepatitis C virus; details: read-out: Mean EC50 ± SD
Excerpt: as §1

[5] = test system: HCV genotype 2b replicon; assay: Transient replicon assay with engineered substitutions; type: cell-based, Hepatitis C virus
Method: (§3) Mutagenesis was performed using a Change-IT multiple-mutation site-directed mutagenesis kit (USB, Cleveland, OH) or by cloning a synthesized DNA fragment encoding the amino acid substitution(s). The genotype 1a and 1b replicon shuttle vectors used for the introduction of the substitutions of interest in the NS3, NS5A, or NS5B gene for transient-transfection assays have been described previously ([28], [33]). The replicon shuttle vectors used for the introduction of substitutions in NS3 genes from other genotypes were similar to the stable replicon cell line constructs described above, except for the absence of the neo gene. After mutagenesis, the plasmids were linearized and RNA was transcribed and then used to transfect Huh-7 cells. Inhibition of HCV replication by the HCV inhibitors was measured by luciferase assay, as described above. Replication efficiency was calculated as a percentage of wild-type replication, as described previously ([28]).

[6] = test system: HCV genotype 3a replicon; assay: as above; type: cell-based, Hepatitis C virus
Method: as §3

[7] = test system: HCV genotype 4a replicon; assay: as above; type: cell-based, Hepatitis C virus
Method: as §3

[8] = test system: HCV genotype 4d replicon; assay: as above; type: cell-based, Hepatitis C virus
Method: as §3

[9] = test system: HCV genotype 6a replicon; assay: as above; type: cell-based, Hepatitis C virus
Method: as §3

[10] = test system: HCV genotype 1a replicon; assay: as above; type: cell-based, Hepatitis C virus; details: read-out: Mean EC50 ± SD
Method: as §3

[11] = test system: HCV genotype 1b replicon; assay: as above; type: cell-based, Hepatitis C virus; details: read-out: Mean EC50 ± SD
Method: as §3

[12] = test system: HCV genotype 2a replicon; assay: as above; type: cell-based, Hepatitis C virus; details: read-out: Mean EC50 ± SD
Method: as §3

[13] = test system: HCV genotype 5a replicon; assay: as above; type: cell-based, Hepatitis C virus; details: 5a wild type, transient transfection; read-out: Mean EC50 ± SD
Method: as §3

[14] = Hepatitis C virus, Huh-7, 0% human plasma

CC(C)(C)[C@@H]1NC(=O)O[C@@H]2CCC[C@H]2OC/C=C/C(F)(F)c2nc3ccccc3nc2O[C@@H]2C[C@@H](C(=O)N[C@]3(C(=O)NS(=O)(=O)C4(C)CC4)C[C@H]3C(F)F)N(C2)C1=O [Glecaprevir, (3aR,7S,10S,12R,21E,24aR)-7-tert-butyl-N-[(1R,2R)-2-(difluoromethyl)-1-{[(1-methylcyclopropyl)sulfonyl]carbamoyl}cyclopropyl]-20,20-difluoro-5,8-dioxo-2,3,3a,5,6,7,8,11,12,20,23,24a-dodecahydro-1H,10H-9,12-methanocyclopenta[18,19][1,10,17,3,6]trioxadiazacyclononadecino[11,12-b]quinoxaline-10-carboxamide]
EC50 [1]: 4.6 ± 1.2 nM
EC50 [2, 14]: 2.8 ± 0.41 nM
EC50 [3, 14]: 0.86 ± 0.11 nM
EC50 [4, 14]: 1.9 ± 0.62 nM
EC50 ([5]; Hepatitis C virus, read-out: Mean EC50 ± SD, 2b NS3 A156T): 460 ± 172 nM
EC50 ([5]; Hepatitis C virus, read-out: Mean EC50 ± SD, 2b NS3 A156V): 4510 nM
EC50 ([5]; Hepatitis C virus, read-out: Mean EC50 ± SD, 2b NS3 D168A): 3.9 ± 1 nM
EC50 ([5]; Hepatitis C virus, read-out: Mean EC50 ± SD, 2b NS3 D168E): 6.6 ± 1.8 nM
EC50 ([5]; Hepatitis C virus, read-out: Mean EC50 ± SD, 2b NS3 D168V): 9.1 ± 1.2 nM
EC50 ([5]; Hepatitis C virus, read-out: Mean EC50 ± SD, 2b wild type, transient transfection): 3.1 nM
EC50 ([6]; Hepatitis C virus, read-out: Mean EC50 ± SD, 3a NS3 A156G): 909 ± 349 nM
EC50 ([6]; Hepatitis C virus, read-out: Mean EC50 ± SD, 3a NS3 Q168R): 30 ± 10 nM
EC50 ([6]; Hepatitis C virus, read-out: Mean EC50 ± SD, 3a wild type, transient transfection): 0.55 nM
EC50 ([7]; Hepatitis C virus, read-out: Mean EC50 ± SD, 4a NS3 A156T): 962 ± 374 nM
EC50 ([7]; Hepatitis C virus, read-out: Mean EC50 ± SD, 4a NS3 A156V): 2080 nM
EC50 ([7]; Hepatitis C virus, read-out: Mean EC50 ± SD, 4a NS3 D168H): 15 ± 6.1 nM
EC50 ([7]; Hepatitis C virus, read-out: Mean EC50 ± SD, 4a NS3 D168V): 6.5 ± 3 nM
EC50 ([7]; Hepatitis C virus, read-out: Mean EC50 ± SD, 4a NS3 R155C): 1.7 ± 0.47 nM
EC50 ([7]; Hepatitis C virus, read-out: Mean EC50 ± SD, 4a wild type, transient transfection): 0.67 nM
EC50 ([8]; Hepatitis C virus, 96 h, read-out: Mean EC50 ± SD, 4d wild type, transient transfection): 0.15 ± 0.04 nM
EC50 ([9]; Hepatitis C virus, read-out: Mean EC50 ± SD, 6a NS3 D168A): 12 ± 5.8 nM
EC50 ([9]; Hepatitis C virus, read-out: Mean EC50 ± SD, 6a NS3 D168H): 22 ± 5.7 nM
EC50 ([9]; Hepatitis C virus, read-out: Mean EC50 ± SD, 6a NS3 D168V): 5.8 ± 2.2 nM
EC50 ([9]; Hepatitis C virus, read-out: Mean EC50 ± SD, 6a wild type, transient transfection): 0.15 nM

C=C[C@@H]1C[C@]1(NC(=O)[C@@H]1C[C@@H]2CN1C(=O)[C@H](C(C)(C)C)NC(=O)O[C@@H]1C[C@H]1CCCCCc1nc3ccc(OC)cc3nc1O2)C(=O)NS(=O)(=O)C1CC1 [Grazoprevir]
EC50 ([2]; 0% human plasma): 1.2 ± 0.31 nM
EC50 ([3]; 0% human plasma): 0.89 ± 0.32 nM
EC50 ([4]; 0% human plasma): 83 ± 18 nM
EC50 ([10]; 1a NS3 A156T): 92 ± 6 nM
EC50 ([10]; 1a NS3 D168E): 4.6 ± 0.66 nM
EC50 ([10]; 1a NS3 D168V): 30 ± 13 nM
EC50 ([10]; 1a NS3 F43L): 0.19 ± 0.05 nM
EC50 ([10]; 1a NS3 Q80K): 0.25 ± 0.09 nM
EC50 ([10]; 1a NS3 R155K): 0.59 ± 0.19 nM
EC50 ([10]; 1a NS3 V36M): 0.27 ± 0.06 nM
EC50 ([10]; 1a NS3 V55I): 0.1 ± 0.02 nM
EC50 ([10]; 1a NS3 Y56H): 2.2 ± 0.73 nM
EC50 ([10]; 1a wild type, transient transfection): 0.14 ± 0.06 nM
EC50 ([11]; 1b NS3 A156T): 39 ± 4.3 nM
EC50 ([11]; 1b NS3 A156V): 68 ± 8.2 nM
EC50 ([11]; 1b NS3 D168A): 8.5 ± 0.37 nM
EC50 ([11]; 1b NS3 D168E): 0.78 ± 0.05 nM
EC50 ([11]; 1b NS3 D168V): 4.1 ± 0.11 nM
EC50 ([11]; 1b wild type, transient transfection): 0.19 ± 0.05 nM
EC50 ([12]; 2a NS3 A156T): 1150 nM
EC50 ([12]; 2a NS3 A156V): 1960 nM
EC50 ([12]; 2a NS3 D168A): 139 ± 9.4 nM
EC50 ([12]; 2a NS3 D168E): 62 ± 10 nM
EC50 ([12]; 2a NS3 D168V): 24 ± 0.94 nM
EC50 ([12]; 2a wild type, transient transfection): 10.5 ± 1.4 nM
EC50 ([5]; 2b NS3 A156T, read-out: Mean EC50 ± SD): 1560 nM
EC50 ([5]; 2b NS3 A156V, read-out: Mean EC50 ± SD): 2890 nM
EC50 ([5]; 2b NS3 D168A, read-out: Mean EC50 ± SD): 347 ± 113 nM
EC50 ([5]; 2b NS3 D168E, read-out: Mean EC50 ± SD): 35 ± 6 nM
EC50 ([5]; 2b NS3 D168V, read-out: Mean EC50 ± SD): 88 ± 19 nM
EC50 ([5]; 2b wild type, transient transfection, read-out: Mean EC50 ± SD): 6.1 ± 1.3 nM
EC50 ([6]; 3a NS3 A156G, read-out: Mean EC50 ± SD): 614 ± 148 nM
EC50 ([6]; 3a NS3 Q168R, read-out: Mean EC50 ± SD): 165 ± 46 nM
EC50 ([6]; 3a wild type, transient transfection, read-out: Mean EC50 ± SD): 47 ± 14 nM
EC50 ([7]; 4a NS3 A156T, read-out: Mean EC50 ± SD): 296 ± 22 nM
EC50 ([7]; 4a NS3 A156V, read-out: Mean EC50 ± SD): 169 ± 27 nM
EC50 ([7]; 4a NS3 D168H, read-out: Mean EC50 ± SD): 25 ± 6.3 nM
EC50 ([7]; 4a NS3 D168V, read-out: Mean EC50 ± SD): 13 ± 1.1 nM
EC50 ([7]; 4a NS3 R155C, read-out: Mean EC50 ± SD): 2 ± 0.27 nM
EC50 ([7]; 4a wild type, transient transfection, read-out: Mean EC50 ± SD): 0.28 ± 0.04 nM
EC50 ([8]; 4d NS3 D168V, read-out: Mean EC50 ± SD): 2.5 ± 0.08 nM
EC50 ([8]; 4d wild type, transient transfection, read-out: Mean EC50 ± SD): 0.18 ± 0.01 nM
EC50 [13]: 0.06 ± 0.02 nM
EC50 ([9]; 6a NS3 D168A, read-out: Mean EC50 ± SD): 103 ± 34 nM
EC50 ([9]; 6a NS3 D168H, read-out: Mean EC50 ± SD): 45 ± 4.1 nM
EC50 ([9]; 6a NS3 D168V, read-out: Mean EC50 ± SD): 24 ± 1.2 nM
EC50 ([9]; 6a wild type, transient transfection, read-out: Mean EC50 ± SD): 0.1 ± 0.02 nM
